Data from patent US10870638B2, “Pyridazinone compound or its salt, and herbicide containing it” (ISHIHARA SANGYO KAISHA, LTD., priority 2016, dated 2020).

Tests used:
Format in all cases: in vivo
Conditions in all cases: active ingredient amount 31 g/ha, 14th day after application
corn (Zea mays L.) [1] = assay: Test Example 2: soil application on the day after sowing, growth inhibition rate on 14th day
Procedure, shortened: (§1)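 Field soil in 1/300,000 ha pots was sown, and the next day compounds formulated as wettable powders or emulsifiable concentrates were diluted in water (1,000 L/ha) and soil-sprayed at the prescribed active ingredient rates. Growth inhibition was scored visually 14 days later, 0 (untreated) to 100 (complete kill).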

rice (Oryza sativa L.) [2] = assay: as above
Procedure, shortened: as §1

[3] = test system: wheat (Triticum aestivum L.); assay: as above
Procedure, shortened: as §1

[4] = test system: soybean (Glycine max Merr.); assay: as above
Procedure, shortened: as §1

[5] = test system: velvetleaf (Abutilon theophrasti MEDIC.); assay: as above
Procedure, shortened: as §1

[6] = test system: barnyardgrass (Echinochloa crus-qalli L.); assay: as above
Procedure, shortened: as §1

[7] = test system: prickly sida (Sida spinosa L.); assay: as above
Procedure, shortened: as §1

[8] = test system: redroot pigweed (Amaranthus retroflexus L.); assay: as above
Procedure, shortened: as §1

[9] = test system: crabgrass (Digitaris sanquinalis L.); assay: as above
Procedure, shortened: as §1

[10] = test system: green foxtail (Setaria viridis L.); assay: as above
Procedure, shortened: as §1

[11] = test system: italian ryegrass (Lolium multiflorum Lam.); assay: Test Example 1: foliar treatment, growth inhibition rate on 14th day
Procedure, shortened: (§2)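 Using a small sprayer, formulated compound in water (0.1 vol % surfactant, 1,000 L/ha) was applied to seedlings grown from seed in upland soil. Fourteen days on, growth state was observed and expressed as percent inhibition from 0 to 100.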

corn (Zea mays L.) [12] = assay: as above
Procedure, shortened: as §2

rice (Oryza sativa L.) [13] = assay: as above
Procedure, shortened: (§3)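 Sow seeds in upland soil pots; at target leaf stage (wild oat 0.4–1.2, rice 0.2–2.7, foxtail 0.5–3.2, soybean primary leaf) spray formulated compound in water, 1,000 L/ha, 0.1 vol % surfactant. Score inhibition visually at day 14, 0–100%.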

[14] = test system: wild oat (Avena fatua L.); assay: as above
Procedure, shortened: as §3

[15] = test system: wheat (Triticum aestivum L.); assay: as above
Procedure, shortened: as §2

[16] = test system: soybean (Glycine max Merr.); assay: as above
Procedure, shortened: as §3

[17] = test system: barnyardgrass (Echinochloa crus-qalli L.); assay: as above
Procedure, shortened: as §2

[18] = test system: redroot pigweed (Amaranthus retroflexus L.); assay: as above
Procedure, shortened: as §2

[19] = test system: crabgrass (Digitaria sanquinalis L.); assay: as above
Procedure, shortened: as §2

[20] = test system: green foxtail (Setaria viridis L.); assay: as above
Procedure, shortened: as §3

With Cc1nn(C)c(=O)c(-c2cc(Oc3nc4ccc(Cl)cc4o3)ccc2OC(F)(F)F)c1O [Compound 2-175] the “Growth inhibition rate (%) Corn” value (corn (Zea mays L.) [1]) was 30%, the “Growth inhibition rate (%) Rice” value (rice (Oryza sativa L.) [2]) was 90% and the “Growth inhibition rate (%) Wheat” value [3] was 0%. The “Growth inhibition rate (%) Soybean” value [4] was 0%, the “Growth inhibition rate (%) Velvetleaf” value [5] was 0% and the “Growth inhibition rate (%) Barnyardgrass” value [6] was 100%. The “Growth inhibition rate (%) Prickly sida” value [7] was 0%, the “Growth inhibition rate (%) Redroot pigweed” value [8] was 0% and the “Growth inhibition rate (%) Crabgrass” value [9] was 95%. For the same molecule, the “Growth inhibition rate (%) Green foxtail” value [10] was 99%, the “Growth inhibition rate (%) Italian ryegrass” value [11] was 50% and the “Growth inhibition rate (%) Corn” value (corn (Zea mays L.) [12]) was 95%. The “Growth inhibition rate (%) Rice” value (rice (Oryza sativa L.) [13]) was 0%, the “Growth inhibition rate (%) Wild oat” value [14] was 10% and the “Growth inhibition rate (%) Wheat” value [15] was 0%. For the same molecule, the “Growth inhibition rate (%) Soybean” value [16] was 10%, the “Growth inhibition rate (%) Barnyardgrass” value [17] was 98% and the “Growth inhibition rate (%) Redroot pigweed” value [18] was 0%. For the same molecule, the “Growth inhibition rate (%) Crabgrass” value [19] was 98% and the “Growth inhibition rate (%) Green foxtail” value [20] was 99%.
For CCn1nc(C)c(O)c(-c2cc(Oc3nc4ccc(Cl)cc4o3)ccc2C)c1=O [Compound 2-176], the “Growth inhibition rate (%) Corn” value (corn (Zea mays L.) [1]) was 0%, the “Growth inhibition rate (%) Rice” value (rice (Oryza sativa L.) [2]) was 60% and the “Growth inhibition rate (%) Wheat” value [3] was 0%. The “Growth inhibition rate (%) Soybean” value [4] was 0%, the “Growth inhibition rate (%) Velvetleaf” value [5] was 0% and the “Growth inhibition rate (%) Barnyardgrass” value [6] was 100%. For the same molecule, the “Growth inhibition rate (%) Prickly sida” value [7] was 0%, the “Growth inhibition rate (%) Redroot pigweed” value [8] was 0% and the “Growth inhibition rate (%) Crabgrass” value [9] was 98%. For the same molecule, the “Growth inhibition rate (%) Green foxtail” value [10] was 99%, the “Growth inhibition rate (%) Italian ryegrass” value [11] was 85% and the “Growth inhibition rate (%) Corn” value (corn (Zea mays L.) [12]) was 80%. The “Growth inhibition rate (%) Rice” value (rice (Oryza sativa L.) [13]) was 10%, the “Growth inhibition rate (%) Wild oat” value [14] was 25% and the “Growth inhibition rate (%) Wheat” value [15] was 0%. The “Growth inhibition rate (%) Soybean” value [16] was 0%, the “Growth inhibition rate (%) Barnyardgrass” value [17] was 100% and the “Growth inhibition rate (%) Redroot pigweed” value [18] was 0%. The “Growth inhibition rate (%) Crabgrass” value [19] was 99% and the “Growth inhibition rate (%) Green foxtail” value [20] was 100%.
CCn1nc(C)c(OC(C)=O)c(-c2cc(Oc3nc4ccc(Cl)cc4o3)ccc2C)c1=O [Compound 2-177] was tested, and the “Growth inhibition rate (%) Corn” value (corn (Zea mays L.) [1]) was 0%, the “Growth inhibition rate (%) Rice” value (rice (Oryza sativa L.) [2]) was 30% and the “Growth inhibition rate (%) Wheat” value [3] was 0%. The “Growth inhibition rate (%) Soybean” value [4] was 0%, the “Growth inhibition rate (%) Velvetleaf” value [5] was 0% and the “Growth inhibition rate (%) Barnyardgrass” value [6] was 90%. The “Growth inhibition rate (%) Prickly sida” value [7] was 0%, the “Growth inhibition rate (%) Redroot pigweed” value [8] was 0% and the “Growth inhibition rate (%) Crabgrass” value [9] was 98%. The “Growth inhibition rate (%) Green foxtail” value [10] was 90%, the “Growth inhibition rate (%) Italian ryegrass” value [11] was 98% and the “Growth inhibition rate (%) Corn” value (corn (Zea mays L.) [12]) was 83%. For the same molecule, the “Growth inhibition rate (%) Rice” value (rice (Oryza sativa L.) [13]) was 65%, the “Growth inhibition rate (%) Wild oat” value [14] was 98% and the “Growth inhibition rate (%) Wheat” value [15] was 90%. The “Growth inhibition rate (%) Soybean” value [16] was 30%, the “Growth inhibition rate (%) Barnyardgrass” value [17] was 100% and the “Growth inhibition rate (%) Redroot pigweed” value [18] was 0%. The “Growth inhibition rate (%) Crabgrass” value [19] was 100% and the “Growth inhibition rate (%) Green foxtail” value [20] was 99%.
Cc1ccc(Oc2nc3ccc(Br)cc3o2)cc1-c1c(O)cnn(C)c1=O [Compound 2-181] was tested, and the “Growth inhibition rate (%) Corn” value (corn (Zea mays L.) [1]) was 0%, the “Growth inhibition rate (%) Rice” value (rice (Oryza sativa L.) [2]) was 20% and the “Growth inhibition rate (%) Wheat” value [3] was 0%. For the same molecule, the “Growth inhibition rate (%) Soybean” value [4] was 0%, the “Growth inhibition rate (%) Velvetleaf” value [5] was 0% and the “Growth inhibition rate (%) Barnyardgrass” value [6] was 90%. For the same molecule, the “Growth inhibition rate (%) Prickly sida” value [7] was 0%, the “Growth inhibition rate (%) Redroot pigweed” value [8] was 0% and the “Growth inhibition rate (%) Crabgrass” value [9] was 0%. The “Growth inhibition rate (%) Green foxtail” value [10] was 40%, the “Growth inhibition rate (%) Italian ryegrass” value [11] was 93% and the “Growth inhibition rate (%) Corn” value (corn (Zea mays L.) [12]) was 70%. The “Growth inhibition rate (%) Rice” value (rice (Oryza sativa L.) [13]) was 10%, the “Growth inhibition rate (%) Wild oat” value [14] was 83% and the “Growth inhibition rate (%) Wheat” value [15] was 35%. For the same molecule, the “Growth inhibition rate (%) Soybean” value [16] was 0%, the “Growth inhibition rate (%) Barnyardgrass” value [17] was 100% and the “Growth inhibition rate (%) Redroot pigweed” value [18] was 0%. For the same molecule, the “Growth inhibition rate (%) Crabgrass” value [19] was 99% and the “Growth inhibition rate (%) Green foxtail” value [20] was 100%.
Cc1ccc(Oc2cnc(C(F)(F)F)cn2)cc1-c1c(O)c(C)nn(C)c1=O [Compound 2-194] was tested, and the “Growth inhibition rate (%) Corn” value (corn (Zea mays L.) [1]) was 40%, the “Growth inhibition rate (%) Rice” value (rice (Oryza sativa L.) [2]) was 30% and the “Growth inhibition rate (%) Wheat” value [3] was 0%. For the same molecule, the “Growth inhibition rate (%) Soybean” value [4] was 0%, the “Growth inhibition rate (%) Velvetleaf” value [5] was 0% and the “Growth inhibition rate (%) Barnyardgrass” value [6] was 95%. The “Growth inhibition rate (%) Prickly sida” value [7] was 0%, the “Growth inhibition rate (%) Redroot pigweed” value [8] was 0% and the “Growth inhibition rate (%) Crabgrass” value [9] was 83%. The “Growth inhibition rate (%) Green foxtail” value [10] was 99%, the “Growth inhibition rate (%) Italian ryegrass” value [11] was 35% and the “Growth inhibition rate (%) Corn” value (corn (Zea mays L.) [12]) was 60%. For the same molecule, the “Growth inhibition rate (%) Rice” value (rice (Oryza sativa L.) [13]) was 0%, the “Growth inhibition rate (%) Wild oat” value [14] was 10% and the “Growth inhibition rate (%) Wheat” value [15] was 0%. For the same molecule, the “Growth inhibition rate (%) Soybean” value [16] was 10%, the “Growth inhibition rate (%) Barnyardgrass” value [17] was 85% and the “Growth inhibition rate (%) Redroot pigweed” value [18] was 0%. The “Growth inhibition rate (%) Crabgrass” value [19] was 90% and the “Growth inhibition rate (%) Green foxtail” value [20] was 90%.
With CC(=O)Oc1c(C)nn(C)c(=O)c1-c1cc(Oc2cnc(C(F)(F)F)cn2)ccc1C [Compound 2-195] the “Growth inhibition rate (%) Corn” value (corn (Zea mays L.) [1]) was 0%, the “Growth inhibition rate (%) Rice” value (rice (Oryza sativa L.) [2]) was 20% and the “Growth inhibition rate (%) Wheat” value [3] was 0%. For the same molecule, the “Growth inhibition rate (%) Soybean” value [4] was 0%, the “Growth inhibition rate (%) Velvetleaf” value [5] was 0% and the “Growth inhibition rate (%) Barnyardgrass” value [6] was 98%. For the same molecule, the “Growth inhibition rate (%) Prickly sida” value [7] was 0%, the “Growth inhibition rate (%) Redroot pigweed” value [8] was 0% and the “Growth inhibition rate (%) Crabgrass” value [9] was 98%. The “Growth inhibition rate (%) Green foxtail” value [10] was 99%, the “Growth inhibition rate (%) Italian ryegrass” value [11] was 85% and the “Growth inhibition rate (%) Corn” value (corn (Zea mays L.) [12]) was 83%. The “Growth inhibition rate (%) Rice” value (rice (Oryza sativa L.) [13]) was 40%, the “Growth inhibition rate (%) Wild oat” value [14] was 90% and the “Growth inhibition rate (%) Wheat” value [15] was 35%. For the same molecule, the “Growth inhibition rate (%) Soybean” value [16] was 30%, the “Growth inhibition rate (%) Barnyardgrass” value [17] was 93% and the “Growth inhibition rate (%) Redroot pigweed” value [18] was 0%. The “Growth inhibition rate (%) Crabgrass” value [19] was 90% and the “Growth inhibition rate (%) Green foxtail” value [20] was 93%.
For CC(=O)Oc1c(C)nn(C)c(=O)c1-c1cc(Oc2cnc3cc(Cl)ccc3n2)ccc1C [Compound 3-33], the “Growth inhibition rate (%) Corn” value (corn (Zea mays L.) [1]) was 20%, the “Growth inhibition rate (%) Rice” value (rice (Oryza sativa L.) [2]) was 60% and the “Growth inhibition rate (%) Wheat” value [3] was 40%. The “Growth inhibition rate (%) Soybean” value [4] was 0%, the “Growth inhibition rate (%) Velvetleaf” value [5] was 0% and the “Growth inhibition rate (%) Barnyardgrass” value [6] was 100%. For the same molecule, the “Growth inhibition rate (%) Prickly sida” value [7] was 0%, the “Growth inhibition rate (%) Redroot pigweed” value [8] was 0% and the “Growth inhibition rate (%) Crabgrass” value [9] was 99%. The “Growth inhibition rate (%) Green foxtail” value [10] was 100%, the “Growth inhibition rate (%) Italian ryegrass” value [11] was 98% and the “Growth inhibition rate (%) Corn” value (corn (Zea mays L.) [12]) was 10%. The “Growth inhibition rate (%) Rice” value (rice (Oryza sativa L.) [13]) was 93%, the “Growth inhibition rate (%) Wild oat” value [14] was 100% and the “Growth inhibition rate (%) Wheat” value [15] was 100%. The “Growth inhibition rate (%) Soybean” value [16] was 30%, the “Growth inhibition rate (%) Barnyardgrass” value [17] was 100% and the “Growth inhibition rate (%) Redroot pigweed” value [18] was 0%. The “Growth inhibition rate (%) Crabgrass” value [19] was 99% and the “Growth inhibition rate (%) Green foxtail” value [20] was 100%.
